Source: the supplement of paper PMC7840683
Counter-ions that a name gives are not always drawn. ± gives the standard deviation of the averaged measurements.

Tested on: HepaRG
Experiment: LDH release cytotoxicity, % of total lysis control; higher = more cytotoxic
Conditions: 48 h
Summary of the method: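 Eight-point half-log series of test chemicals, the highest at 100 µM, were given in duplicate for 48 h to single-lot HepaRG cells on collagen I-coated 96-well plates in serum-free induction medium with 0.5% DMSO. A Tecan Safire read resorufin fluorescence from CytoTox-ONE as a measure of LDH in 50 µL spent medium, with 0.1% Triton X in total lysis wells. Percent cytotoxicity was normalized to on-plate vehicle and total lysis controls and averaged over the duplicates.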

| SMILES | LDH release cytotoxicity (0.03162 µM) [%] | LDH release cytotoxicity (0.1 µM) [%] | LDH release cytotoxicity (0.3162278 µM) [%] | LDH release cytotoxicity (1 µM) [%] | LDH release cytotoxicity (3.16228 µM) [%] | LDH release cytotoxicity (10 µM) [%] | LDH release cytotoxicity (31.6228 µM) [%] | LDH release cytotoxicity (100 µM) [%] | also measured |
| --- | --- | --- | --- | --- | --- | --- | --- | --- | --- |
| O=C(Nc1ccccc1)c1ccccc1I [Benodanil] | -1.25 ± 0.85 | -1.19 ± 1.3 | -1.59 ± 0.61 | -2.02 ± 0.61 | -0.274 ± 0.0083 | 1.86 ± 0.57 | 5.86 ± 1.2 | 12.4 ± 0.34 | – |
| CON=C(C1=NOCCO1)c1ccccc1Oc1ncnc(Oc2ccccc2Cl)c1F [Fluoxastrobin] | -1.84 ± 0.41 | -1.61 ± 0.52 | -0.5866 ± 0.0016 | 0.517 ± 2.5 | -0.886 ± 0.77 | -0.0116 ± 2.9 | 13.1 ± 0.82 | 33.8 ± 4 | – |
| CCNc1nc(Cl)nc(NCC)n1 [Simazine] | -0.667 ± 0.47 | -1.85 ± 0.54 | -2.13 ± 0.56 | -2.25 ± 0.22 | -2.26 ± 0.15 | -1.94 ± 0.14 | -0.91 ± 0.2 | -0.579 ± 0.64 | – |
| CCOS(=O)(=O)OCC [Diethyl sulfate] | -1.93 ± 0.2 | -1.47 ± 0.76 | -1.68 ± 0.27 | -2.05 ± 0.13 | -1.61 ± 0.19 | -1.77 ± 0.24 | -1.5 ± 0.21 | 0.71 ± 0.71 | – |
| CC(C)(C)c1ccccc1O [2-tert-Butylphenol] | -1.05 ± 0.97 | -1.24 ± 0.37 | -1.22 ± 0.3 | -1.31 ± 1.3 | -0.599 ± 0.044 | -0.21 ± 0.92 | -0.521 ± 0.091 | 0.121 ± 1 | – |
| CCCOC(=O)c1cc(O)c(O)c(O)c1 [Propyl gallate] | – | -3.35 ± 1.2 | – | -4.27 ± 0.64 | -3.65 ± 0.077 | -3.8 ± 0.18 | -4.52 ± 0.15 | -3.34 ± 1.5 | LDH release cytotoxicity (0.031623 µM): 0.488 ± 2.3%; LDH release cytotoxicity (0.316228 µM): -3.75 ± 0.63% |
| CC(=O)c1ccc2c(c1)C(NC(=O)c1ccc(F)cc1)C(O)C(C)(C)O2 (centres undefined) [Carabersat] | – | – | – | – | – | – | – | – | LDH release cytotoxicity (0.0308322 µM): -0.845 ± 0.35%; LDH release cytotoxicity (0.0975 µM): -1.53 ± 0.47%; LDH release cytotoxicity (0.308322 µM): -2.26 ± 1.3%; LDH release cytotoxicity (0.975 µM): -2.21 ± 0.25%; LDH release cytotoxicity (3.0832207 µM): -1.81 ± 0.28%; LDH release cytotoxicity (9.75 µM): -1.6 ± 0.32%; LDH release cytotoxicity (30.832207 µM): -1.02 ± 0.098%; LDH release cytotoxicity (97.5 µM): 0.388 ± 0.96% |
| O=S(=O)(O)C(F)(F)C(F)(F)C(F)(F)C(F)(F)C(F)(F)C(F)(F)C(F)(F)C(F)(F)F [Perfluorooctanesulfonic acid] | -1.36 ± 0.32 | -1.86 ± 0.5 | -1.14 ± 0.19 | -1.91 ± 0.49 | -1.26 ± 0.23 | -2 ± 0.026 | -0.893 ± 0.12 | 19.6 ± 3.8 | – |
| COC(=O)c1ccc(I)cc1S(=O)(=O)NC(=O)Nc1nc(C)nc(OC)n1 [Iodosulfuron-methyl-sodium] | -1.49 ± 0.12 | -0.389 ± 1.6 | -1.21 ± 0.34 | -0.477 ± 0.51 | -0.16 ± 0.13 | 0.897 ± 0.24 | 0.0334 ± 0.38 | 2.49 ± 0.31 | – |
| CC(=O)OCC(COC(C)=O)OC(C)=O [Triacetin] | -0.962 ± 0.12 | -3.22 ± 0.49 | -1.81 ± 0.69 | -1.13 ± 0.65 | -1.14 ± 0.036 | -0.506 ± 0.1 | 0.136 ± 0.76 | 0.128 ± 0.77 | – |
| O=C(O)c1ccccc1-n1cc(C(=O)O)c(=O)c2cc(Nc3c(F)cc(F)cc3Cl)c(Cl)cc21 [AVE9423] | -1.33 ± 0.48 | -1.38 ± 0.094 | -2.06 ± 0.7 | -2.38 ± 0.63 | -2.31 ± 0.53 | -2.38 ± 0.67 | -1.42 ± 1.4 | -1.52 ± 0.52 | – |
| CCCC(=O)O [Butanoic acid] | 0.168 ± 0.2 | -0.77 ± 0.36 | -0.76 ± 0.38 | -1.47 ± 0.67 | -0.676 ± 0.53 | -0.93 ± 0.85 | -0.26 ± 0.0066 | -0.235 ± 0.085 | – |
| CCNc1nc(NC(C)C)nc(SC)n1 [Ametryn] | -0.705 ± 0.77 | -1.179 ± 0.0064 | -1.07 ± 0.34 | -1.09 ± 0.47 | -1.44 ± 0.021 | -0.756 ± 0.46 | -0.965 ± 0.14 | -0.133 ± 0.12 | – |
| CCC(C)(NC(=O)c1cc(Cl)c(C)c(Cl)c1)C(=O)CCl (centres undefined) [Zoxamide] | – | – | – | – | – | – | – | – | LDH release cytotoxicity (0.0317809 µM): -0.27 ± 0.064%; LDH release cytotoxicity (0.1005 µM): -0.966 ± 0.8%; LDH release cytotoxicity (0.317809 µM): -0.7429 ± 0.0016%; LDH release cytotoxicity (1.005 µM): -1.43 ± 0.81%; LDH release cytotoxicity (3.17809 µM): -0.947 ± 0.12%; LDH release cytotoxicity (10.05 µM): -0.343 ± 0.64%; LDH release cytotoxicity (31.7809 µM): -1.15 ± 0.96%; LDH release cytotoxicity (100.5 µM): 41.9 ± 2.7% |
| COS(=O)(=O)OC [Dimethyl sulfate] | -0.536 ± 0.23 | -0.931 ± 0.64 | -1.52 ± 1 | -1.6 ± 0.65 | -1.18 ± 0.15 | -0.291 ± 0.98 | -1.17 ± 1.2 | 3.53 ± 0.11 | – |
| Oc1cccc(O)c1 [Resorcinol] | -0.658 ± 0.45 | -1.17 ± 0.33 | -0.864 ± 0.51 | -1.17 ± 0.85 | -2.41 ± 1 | -0.6 ± 0.62 | -0.357 ± 1.3 | 2.31 ± 0.55 | – |
| COCCOCCOC [Diethylene glycol dimethyl ether] | -0.901 ± 0.75 | -2.67 ± 0.22 | -2.41 ± 0.75 | -2.68 ± 1.4 | -1.55 ± 0.41 | -0.488 ± 0.045 | -0.826 ± 0.12 | 0.75 ± 0.028 | – |
| CN(C)C(=S)[S-].CN(C)C(=S)[S-].[Zn+2] [Ziram] | -1.6 ± 0.3 | -1.5 ± 0.095 | -1.92 ± 1.4 | -1.52 ± 0.12 | -1.1 ± 0.12 | -0.764 ± 0.98 | 37.6 ± 4 | 46.8 ± 1.6 | – |
